Assay results published in ChEMBL document CHEMBL4665642, “Anticancer profile of newly synthesized BRAF inhibitors possess 5-(pyrimidin-4-yl)imidazo[2,1-b]thiazole scaffold” (Bioorg Med Chem, 2019).

Legend:
Type in all cases: functional
Settings in all cases: read-out: Activity
MDA-MB-468 = assay: Cytotoxicity against human MDA-MB-468 cells assessed as cell viability at 10 uM incubated for 48 hrs by sulforhodamine B assay relative to control
BT-549 = assay: Cytotoxicity against human BT-549 cells assessed as cell viability at 10 uM incubated for 48 hrs by sulforhodamine B assay relative to control
MDA-MB-231 = assay: Cytotoxicity against human MDA-MB-231 cells assessed as cell viability at 10 uM incubated for 48 hrs by sulforhodamine B assay relative to control
MCF7 = assay: Cytotoxicity against human MCF7 cells assessed as cell viability at 10 uM incubated for 48 hrs by sulforhodamine B assay relative to control
DU-145 = assay: Cytotoxicity against human DU-145 cells assessed as cell viability at 10 uM incubated for 48 hrs by sulforhodamine B assay relative to control
PC-3 = assay: Cytotoxicity against human PC-3 cells assessed as cell viability at 10 uM incubated for 48 hrs by sulforhodamine B assay relative to control
TK-10 = assay: Cytotoxicity against human TK-10 cells assessed as cell viability at 10 uM incubated for 48 hrs by sulforhodamine B assay relative to control
SN12C = assay: Cytotoxicity against human SN12C cells assessed as cell viability at 10 uM incubated for 48 hrs by sulforhodamine B assay relative to control
CAKI-1 = assay: Cytotoxicity against human CAKI-1 cells assessed as cell viability at 10 uM incubated for 48 hrs by sulforhodamine B assay relative to control
ACHN = assay: Cytotoxicity against human ACHN cells assessed as cell viability at 10 uM incubated for 48 hrs by sulforhodamine B assay relative to control
786-0 = assay: Cytotoxicity against human 786-0 cells assessed as cell viability at 10 uM incubated for 48 hrs by sulforhodamine B assay relative to control
SK-OV-3 = assay: Cytotoxicity against human SK-OV-3 cells assessed as cell viability at 10 uM incubated for 48 hrs by sulforhodamine B assay relative to control
NCI/ADR-RES = assay: Cytotoxicity against human NCI/ADR-RES cells assessed as cell viability at 10 uM incubated for 48 hrs by sulforhodamine B assay relative to control
OVCAR-8 = assay: Cytotoxicity against human OVCAR-8 cells assessed as cell viability at 10 uM incubated for 48 hrs by sulforhodamine B assay relative to control
OVCAR-4 = assay: Cytotoxicity against human OVCAR-4 cells assessed as cell viability at 10 uM incubated for 48 hrs by sulforhodamine B assay relative to control
OVCAR-3 = assay: Cytotoxicity against human OVCAR-3 cells assessed as cell viability at 10 uM incubated for 48 hrs by sulforhodamine B assay relative to control
IGROV-1 = assay: Cytotoxicity against human IGROV-1 cells assessed as cell viability at 10 uM incubated for 48 hrs by sulforhodamine B assay relative to control
SK-MEL-28 = assay: Cytotoxicity against human SK-MEL-28 cells assessed as cell viability at 10 uM incubated for 48 hrs by sulforhodamine B assay relative to control
MDA-MB-435 = assay: Cytotoxicity against human MDA-MB-435 cells assessed as cell viability at 10 uM incubated for 48 hrs by sulforhodamine B assay relative to control
M14 = assay: Cytotoxicity against human M14 cells assessed as cell viability at 10 uM incubated for 48 hrs by sulforhodamine B assay relative to control
CCRF-CEM = assay: Cytotoxicity against human CCRF-CEM cells assessed as cell viability at 10 uM incubated for 48 hrs by sulforhodamine B assay relative to control
HL-60(TB) = assay: Cytotoxicity against human HL-60(TB) cells assessed as cell viability at 10 uM incubated for 48 hrs by sulforhodamine B assay relative to control
K562 = assay: Cytotoxicity against human K562 cells assessed as cell viability at 10 uM incubated for 48 hrs by sulforhodamine B assay relative to control
RPMI-8226 = assay: Cytotoxicity against human RPMI-8226 cells assessed as cell viability at 10 uM incubated for 48 hrs by sulforhodamine B assay relative to control
SR = assay: Cytotoxicity against human SR cells assessed as cell viability at 10 uM incubated for 48 hrs by sulforhodamine B assay relative to control
A549 = assay: Cytotoxicity against human A549 cells assessed as cell viability at 10 uM incubated for 48 hrs by sulforhodamine B assay relative to control
HOP-62 = assay: Cytotoxicity against human HOP-62 cells assessed as cell viability at 10 uM incubated for 48 hrs by sulforhodamine B assay relative to control
HOP-92 = assay: Cytotoxicity against human HOP-92 cells assessed as cell viability at 10 uM incubated for 48 hrs by sulforhodamine B assay relative to control
NCI-H226 = assay: Cytotoxicity against human NCI-H226 cells assessed as cell viability at 10 uM incubated for 48 hrs by sulforhodamine B assay relative to control
NCI-H23 = assay: Cytotoxicity against human NCI-H23 cells assessed as cell viability at 10 uM incubated for 48 hrs by sulforhodamine B assay relative to control
NCI-H322M = assay: Cytotoxicity against human NCI-H322M cells assessed as cell viability at 10 uM incubated for 48 hrs by sulforhodamine B assay relative to control
NCI-H460 = assay: Cytotoxicity against human NCI-H460 cells assessed as cell viability at 10 uM incubated for 48 hrs by sulforhodamine B assay relative to control
COLO 205 = assay: Cytotoxicity against human COLO 205 cells assessed as cell viability at 10 uM incubated for 48 hrs by sulforhodamine B assay relative to control
HCT-15 = assay: Cytotoxicity against human HCT-15 cells assessed as cell viability at 10 uM incubated for 48 hrs by sulforhodamine B assay relative to control
HCT-29 = assay: Cytotoxicity against human […] cells assessed as cell viability at 10 uM incubated for 48 hrs by sulforhodamine B assay relative to control
KM12 = assay: Cytotoxicity against human KM12 cells assessed as cell viability at 10 uM incubated for 48 hrs by sulforhodamine B assay relative to control
SF-268 = assay: Cytotoxicity against human SF-268 cells assessed as cell viability at 10 uM incubated for 48 hrs by sulforhodamine B assay relative to control
SF-295 = assay: Cytotoxicity against human SF-295 cells assessed as cell viability at 10 uM incubated for 48 hrs by sulforhodamine B assay relative to control
SNB-19 = assay: Cytotoxicity against human SNB-19 cells assessed as cell viability at 10 uM incubated for 48 hrs by sulforhodamine B assay relative to control
SNB-75 = assay: Cytotoxicity against human SNB-75 cells assessed as cell viability at 10 uM incubated for 48 hrs by sulforhodamine B assay relative to control
LOX IMVI = assay: Cytotoxicity against human LOX IMVI cells assessed as cell viability at 10 uM incubated for 48 hrs by sulforhodamine B assay relative to control

Q: Which viability at 10 µM (MDA-MB-468) does the source give for `O=S(=O)(NCCCNc1nccc(-c2c(-c3cccc(F)c3)nc3sccn23)n1)c1cccc(F)c1` here?
A: 33%

Q: What about the viability at 10 µM (BT-549) of the same compound?
A: 33.2%

Q: And the viability at 10 µM (MDA-MB-231)?
A: 75.9%

Q: And the viability at 10 µM (MCF7)?
A: 33.7%

Q: What about the viability at 10 µM (DU-145) of the same compound?
A: 55.5%

Q: What about the viability at 10 µM (PC-3) of the same compound?
A: 27.1%

Q: And the viability at 10 µM (TK-10)?
A: 72.3%

Q: What about the viability at 10 µM (SN12C) of the same compound?
A: 56.3%

Q: And the viability at 10 µM (CAKI-1)?
A: 41.5%

Q: What about the viability at 10 µM (ACHN) of the same compound?
A: 42.5%

Q: What about the viability at 10 µM (786-0) of the same compound?
A: 66.3%

Q: What about the viability at 10 µM (SK-OV-3) of the same compound?
A: 66%

Q: And the viability at 10 µM (NCI/ADR-RES)?
A: 17.6%

Q: And the viability at 10 µM (OVCAR-8)?
A: 18.4%

Q: What about the viability at 10 µM (OVCAR-4) of the same compound?
A: 26.8%

Q: And the viability at 10 µM (OVCAR-3)?
A: 50.7%

Q: And the viability at 10 µM (IGROV-1)?
A: 18.9%

Q: And the viability at 10 µM (SK-MEL-28)?
A: 68.3%

Q: And the viability at 10 µM (MDA-MB-435)?
A: 24%

Q: And the viability at 10 µM (M14)?
A: 28.6%

Q: And the viability at 10 µM (CCRF-CEM)?
A: 24.7%

Q: And the viability at 10 µM (HL-60(TB))?
A: 40.5%

Q: What about the viability at 10 µM (K562) of the same compound?
A: 20.1%

Q: What about the viability at 10 µM (RPMI-8226) of the same compound?
A: 28%

Q: And the viability at 10 µM (SR)?
A: 64.9%

Q: And the viability at 10 µM (A549)?
A: 49.3%

Q: What about the viability at 10 µM (HOP-62) of the same compound?
A: 61.3%

Q: What about the viability at 10 µM (HOP-92) of the same compound?
A: 74.8%

Q: What about the viability at 10 µM (NCI-H226) of the same compound?
A: 23.2%

Q: What about the viability at 10 µM (NCI-H23) of the same compound?
A: 38.8%

Q: What about the viability at 10 µM (NCI-H322M) of the same compound?
A: 79.9%

Q: And the viability at 10 µM (NCI-H460)?
A: 58.3%

Q: And the viability at 10 µM (COLO 205)?
A: 23.4%

Q: What about the viability at 10 µM (HCT-15) of the same compound?
A: 22.6%

Q: And the viability at 10 µM (HCT-29)?
A: 30.6%

Q: What about the viability at 10 µM (KM12) of the same compound?
A: 29.9%

Q: And the viability at 10 µM (SF-268)?
A: 55.6%

Q: What about the viability at 10 µM (SF-295) of the same compound?
A: 51.1%

Q: What about the viability at 10 µM (SNB-19) of the same compound?
A: 76.8%

Q: What about the viability at 10 µM (SNB-75) of the same compound?
A: 88.6%

Q: And the viability at 10 µM (LOX IMVI)?
A: 39%

Q: With `O=C(NCCNc1nccc(-c2c(-c3cccc(F)c3)nc3sccn23)n1)c1ccc(Cl)cc1` as the compound, how does the viability at 10 µM (MDA-MB-468) read?
A: 67.8%

Q: And the viability at 10 µM (BT-549)?
A: 75.9%

Q: What about the viability at 10 µM (MDA-MB-231) of the same compound?
A: 65.5%

Q: What about the viability at 10 µM (MCF7) of the same compound?
A: 27.7%

Q: And the viability at 10 µM (DU-145)?
A: 71%

Q: What about the viability at 10 µM (PC-3) of the same compound?
A: 72.5%

Q: And the viability at 10 µM (TK-10)?
A: 75.4%

Q: And the viability at 10 µM (SN12C)?
A: 52.5%

Q: What about the viability at 10 µM (CAKI-1) of the same compound?
A: 41.5%

Q: What about the viability at 10 µM (ACHN) of the same compound?
A: 34.2%

Q: And the viability at 10 µM (786-0)?
A: 54.5%

Q: And the viability at 10 µM (SK-OV-3)?
A: 80.9%

Q: What about the viability at 10 µM (NCI/ADR-RES) of the same compound?
A: 74.3%

Q: What about the viability at 10 µM (OVCAR-8) of the same compound?
A: 55.1%

Q: And the viability at 10 µM (OVCAR-4)?
A: 77.9%

Q: What about the viability at 10 µM (OVCAR-3) of the same compound?
A: 75.7%

Q: What about the viability at 10 µM (IGROV-1) of the same compound?
A: 22.5%

Q: What about the viability at 10 µM (SK-MEL-28) of the same compound?
A: 64.9%

Q: What about the viability at 10 µM (MDA-MB-435) of the same compound?
A: 32%

Q: What about the viability at 10 µM (M14) of the same compound?
A: 38.8%

Q: What about the viability at 10 µM (CCRF-CEM) of the same compound?
A: 58.1%

Q: And the viability at 10 µM (HL-60(TB))?
A: 99.2%

Q: And the viability at 10 µM (K562)?
A: 54.4%

Q: And the viability at 10 µM (RPMI-8226)?
A: 62.4%

Q: And the viability at 10 µM (SR)?
A: 46.5%

Q: And the viability at 10 µM (A549)?
A: 34.8%

Q: What about the viability at 10 µM (HOP-62) of the same compound?
A: 91.9%

Q: And the viability at 10 µM (HOP-92)?
A: 87.1%

Q: And the viability at 10 µM (NCI-H226)?
A: 51.2%

Q: And the viability at 10 µM (NCI-H23)?
A: 73.5%

Q: And the viability at 10 µM (NCI-H322M)?
A: 66.3%

Q: What about the viability at 10 µM (NCI-H460) of the same compound?
A: 35.8%

Q: And the viability at 10 µM (COLO 205)?
A: 29.8%

Q: What about the viability at 10 µM (HCT-15) of the same compound?
A: 40.1%

Q: And the viability at 10 µM (HCT-29)?
A: 35.2%

Q: And the viability at 10 µM (KM12)?
A: 62.8%

Q: And the viability at 10 µM (SF-268)?
A: 67.9%

Q: What about the viability at 10 µM (SF-295) of the same compound?
A: 73.8%

Q: And the viability at 10 µM (SNB-19)?
A: 71.9%

Q: What about the viability at 10 µM (SNB-75) of the same compound?
A: 63.5%

Q: What about the viability at 10 µM (LOX IMVI) of the same compound?
A: 43.4%
